{"source": "patent US6361815B1", "about": "“Products comprising trihydroxystilbenes and derivatives thereof and methods for their manufacture and use” (Pure World Botanicals, Inc., priority 1998, dated 2002)", "key": {"[1]": {"tested_on": "MCF-7", "test": "MTT assay, 6-cell line test, breast MCF-7", "type": "cell-based, human", "conditions": "MCF-7 cells", "description": "(§1) Cells were planted in 96 well flat bottom plates with low evaporation lids. Three cell lines per plate were seeded in 0.2 ml medium per well. Each cell line was planted at the optimum concentration for its particular growth rate: H-29 and A-549, 5000 c/ml, MCF-7, 15000 c/well, KB and similar cells, 2500 c/ml, P388 and similar cells, 15000 c/ml. Products were tested at various dilutions (at least ten) to determine the ED 50."}, "[2]": {"tested_on": "PC-3", "test": "MTT assay, 6-cell line test, prostate PC-3", "type": "cell-based, human", "conditions": "PC-3 cells", "description": "as §1"}, "[3]": {"tested_on": "PACA-2", "test": "MTT assay, 6-cell line test, pancreatic PACA-2", "type": "cell-based, human", "conditions": "PACA-2 cells", "description": "as §1"}, "[4]": {"tested_on": "HT-29", "test": "MTT assay, 6-cell line test, colon HT-29", "type": "cell-based, human", "conditions": "HT-29 cells", "description": "as §1"}, "[5]": {"tested_on": "A-478", "test": "MTT assay, 6-cell line test, kidney A-478", "type": "cell-based, human", "conditions": "A-478 cells", "description": "as §1"}, "[6]": {"tested_on": "A-549", "test": "MTT assay, 6-cell line test, lung A-549", "type": "cell-based, human", "conditions": "A-549 cells", "description": "as §1"}, "[7]": {"tested_on": "DMBA-induced mammary tumors", "test": "DMBA-induced mammary carcinogenesis in rats", "type": "in vivo, Female Sprague-Dawley rats", "conditions": "for Rat with Tumors, percentage in parentheses (reduction versus Control Diet + DMBA, not explained) / Tumors Per Rat, percentage in parentheses (reduction versus Control Diet + DMBA, not explained): Sulforaphane 50 mg/kg by gavage + DMBA; for Rat with Tumors (%) / Tumors Per Rat: Sulforaphane 50 mg/kg by gavage once a day, days 46-51 of age, + DMBA", "protocol": "Sulforaphane was orally administered by gavage (50 mg / kg body weight in 0.1 ml corn oil) to rats once a day at 46th, 47th, 48th, 49th, 50th and 51st days of their age. […] Palpable mammary tumors were counted every week after DMBA administration."}, "[8]": {"tested_on": "carrageenan-induced pedal edema", "conditions": "rats, cited from earlier work"}}, "note": "Where a name gives a salt, the structure may show the parent alone."}
{"smiles": "OC[C@H]1O[C@@H](Oc2cc(O)cc(/C=C/c3ccc(O)cc3)c2)[C@H](O)[C@@H](O)[C@@H]1O", "note": "(relative stereo) [Fifth Product, 90% Piceid, 3,4′5-trans-trihydroxystilbene-3-β-mono-D-glucoside]", "values": [{"measurement": "Breast MCF-7 ED 50", "setting": "[1]", "result": 100, "unit": "µg/mL"}, {"measurement": "Prostrate PC-3 ED 50", "setting": "[2]", "result": 80.58, "unit": "µg/mL"}, {"measurement": "Pancreatic PACA-2 ED 50", "setting": "[3]", "result": 40.98, "unit": "µg/mL"}, {"measurement": "Colon HT-29 ED 50", "setting": "[4]", "result": 79.20, "unit": "µg/mL"}, {"measurement": "Kidney A-478 ED 50", "setting": "[5]", "result": 34.95, "unit": "µg/mL"}, {"measurement": "Lung A-549 ED 50", "setting": "[6]", "result": 35.77, "unit": "µg/mL"}]}
{"smiles": "Oc1ccc(/C=C/c2cc(O)cc(O)c2)cc1", "note": "[3,4′,5-trihydroxy-trans-stilbene]", "values": [{"measurement": "Breast MCF-7 ED 50", "setting": "[1]", "result": 4.23, "unit": "µg/mL"}, {"measurement": "Prostrate PC-3 ED 50", "setting": "[2]", "result": 100, "unit": "µg/mL"}, {"measurement": "Pancreatic PACA-2 ED 50", "setting": "[3]", "result": 3.55, "unit": "µg/mL"}, {"measurement": "Colon HT-29 ED 50", "setting": "[4]", "result": 1.66, "unit": "µg/mL"}, {"measurement": "Kidney A-478 ED 50", "setting": "[5]", "result": 0.74, "unit": "µg/mL"}, {"measurement": "Lung A-549 ED 50", "setting": "[6]", "result": 0.326, "unit": "µg/mL"}]}
{"smiles": "COc1cccc2c1C(=O)c1c(O)c3c(c(O)c1C2=O)C[C@@](O)(C(=O)CO)C[C@@H]3O[C@H]1C[C@H](N)[C@H](O)[C@H](C)O1", "note": "[Doxorubicin HCL]", "values": [{"measurement": "Breast MCF-7 ED 50", "setting": "[1]", "result": 0.107, "unit": "µg/mL"}, {"measurement": "Prostrate PC-3 ED 50", "setting": "[2]", "result": 0.0281, "unit": "µg/mL"}, {"measurement": "Pancreatic PACA-2 ED 50", "setting": "[3]", "result": 0.00522, "unit": "µg/mL"}, {"measurement": "Colon HT-29 ED 50", "setting": "[4]", "result": 0.022, "unit": "µg/mL"}, {"measurement": "Kidney A-478 ED 50", "setting": "[5]", "result": 0.00359, "unit": "µg/mL"}, {"measurement": "Lung A-549 ED 50", "setting": "[6]", "result": 0.00316, "unit": "µg/mL"}]}
{"smiles": "C[S+]([O-])CCCCN=C=S", "note": "(stereo not drawn) [Sulforaphane]", "values": [{"measurement": "Rat with Tumors, percentage in parentheses (reduction versus Control Diet + DMBA, not explained)", "setting": "[7]; 9 weeks after DMBA", "result": "(100%)"}, {"measurement": "Tumors Per Rat, percentage in parentheses (reduction versus Control Diet + DMBA, not explained)", "setting": "[7]; 9 weeks after DMBA", "result": "(100%)"}, {"measurement": "Rat with Tumors (%)", "setting": "[7]; 9 weeks after DMBA", "result": 0, "unit": "%"}, {"measurement": "Tumors Per Rat", "setting": "[7]; 9 weeks after DMBA", "result": 0}, {"measurement": "Rat with Tumors, percentage in parentheses (reduction versus Control Diet + DMBA, not explained)", "setting": "[7]; 14 weeks after DMBA", "result": "(32%)"}, {"measurement": "Tumors Per Rat, percentage in parentheses (reduction versus Control Diet + DMBA, not explained)", "setting": "[7]; 14 weeks after DMBA", "result": "(43%)"}, {"measurement": "Rat with Tumors (%)", "setting": "[7]; 14 weeks after DMBA", "result": 13, "unit": "%"}, {"measurement": "Tumors Per Rat", "setting": "[7]; 14 weeks after DMBA", "result": "0.13 ± 0.08"}, {"measurement": "Rat with Tumors, percentage in parentheses (reduction versus Control Diet + DMBA, not explained)", "setting": "[7]; 22 weeks after DMBA", "result": "(38%)"}, {"measurement": "Tumors Per Rat, percentage in parentheses (reduction versus Control Diet + DMBA, not explained)", "setting": "[7]; 22 weeks after DMBA", "result": "(10%)"}, {"measurement": "Rat with Tumors (%)", "setting": "[7]; 22 weeks after DMBA", "result": 31, "unit": "%"}, {"measurement": "Tumors Per Rat", "setting": "[7]; 22 weeks after DMBA", "result": "0.36 ± 0.33"}]}
{"smiles": "Oc1ccc(C=Cc2cc(O)cc(O)c2)cc1", "note": "[resveratrol, 3,4′,5-trihydroxystilbene]", "values": [{"measurement": "Pedal edema, acute phase", "setting": "[8]; acute phase (3 to 24 hours)", "result": "significantly reduced pedal edema"}, {"measurement": "Pedal edema, chronic phase", "setting": "[8]; chronic phase (24 to 144 hours)", "result": "significantly reduced pedal edema"}, {"measurement": "Edema-suppressing activity compared with reference drugs", "setting": "[8]; versus phenylbutazone and indomethacin", "result": "greater than that of phenylbutazone and similar to that of indomethacin"}]}
